Reference: US20220274997A1, “PIM KINASE INHIBITOR COMPOSITIONS AND USES THEREOF” (Snap Bio, Inc., priority 2019, published 2022)
Several values for one entry are separate records, joined by “and”; a condition that tells them apart may be missing. Equal entries are not always repeated.

Key:
PIM1 [1] = target: T1, PIM1 (Homo sapiens, UniProt P11309); test: Biochemical radiolabeled ATP kinase assay (Reaction Biology), PIM1; settings: 10 μM ATP
T1 construct: purchased ProQinase, Freiburg, Germany 0186-0000-1
Excerpt: The second assay used was Perkin Elmer's LANCE® Ultra kinase assay which uses a ULight™-labeled peptide substrate and an appropriate Europium-labeled anti-phospho antibody. When the substrate becomes phosphorylated by a kinase of interest, the phosphorylated site on the substrate is recognized by the Europium-labeled anti-phospho antibody. […] The intensity of light emission is proportional to the level of ULight peptide phosphorylation. A kinase inhibitor reduces the FRET signal, thus providing an accurate and sensitive measure of inhibition potency. […]
(§1) The standard protocol used for PIM3 was performed by Reaction Biology Corporation (Malvern, Pa.) using a capture assay performed in 20 mM HEPES at pH 7.5 containing 10 mM MgCl2, 10 mM MnCl2, 1 mM EGTA, 0.02% Brij35, 0.02 mg/mL BSA, 0.1 mM Na3VO4, 2 mM DTT, 0.02% Brij35, 10 μM ATP, and 20 μM peptide substrate […]. […] The bound ^33P-peptide substrate was quantified by scintillation counting and the disintegrations per minute (dpm) obtained, being directly proportional to the amount of ^33P-peptide produced by PIM3, were used to determine the IC50 for each compound. […]
(§2) The inhibitory activity of each compound against PIM kinases was measured with the radioisotope filter binding assay, a type of substrate phosphorylation assays, available at Reaction Biology Corporation (Mavern, Pa.).

PIM2 = target: T2, PIM2 (Homo sapiens, UniProt Q9P1W9); test: Biochemical radiolabeled ATP kinase assay (Reaction Biology), PIM2; settings: 10 μM ATP
T2 construct: purchased ProQinase, Freiburg, Germany 0223-0000-1
Excerpt: Two different assays for measuring kinase inhibitor activity were employed for messing the effectiveness of compounds of the present disclosure for inhibiting PIM kinases. […] The second assay used was Perkin Elmer's LANCE® Ultra kinase assay which uses a ULight™-labeled peptide substrate and an appropriate Europium-labeled anti-phospho antibody. When the substrate becomes phosphorylated by a kinase of interest, the phosphorylated site on the substrate is recognized by the Europium-labeled anti-phospho antibody. […]
as §1
The inhibitory activity of each compound against PIM kinases was measured with the radioisotope filter binding assay, a type of substrate phosphorylation assays, available at Reaction Biology Corporation (Mavern, Pa.). […]

PIM3 = target: T3, PIM3 (Homo sapiens, UniProt Q86V86); test: Biochemical radiolabeled ATP kinase assay (Reaction Biology), PIM3; settings: for IC50: 10 μM ATP
T3 construct: purchased SignalChem, Richmond, Canada P37-10BG
Excerpt: (§3) The second assay used was Perkin Elmer's LANCE® Ultra kinase assay which uses a ULight™-labeled peptide substrate and an appropriate Europium-labeled anti-phospho antibody. When the substrate becomes phosphorylated by a kinase of interest, the phosphorylated site on the substrate is recognized by the Europium-labeled anti-phospho antibody. […] The intensity of light emission is proportional to the level of ULight peptide phosphorylation. A kinase inhibitor reduces the FRET signal, thus providing an accurate and sensitive measure of inhibition potency.
The basic biochemical assay employs radiolabeled ATP to measure the kinase-catalyzed transfer of radioactive phosphorus to a tyrosine-containing peptide substrate, according to the general equation: […]
Reaction: Substrate+[γ-^33P]−ATP→^33P-Substrate+ADP
The standard protocol used for PIM3 was performed by Reaction Biology Corporation (Malvern, Pa.) using a capture assay performed in 20 mM HEPES at pH 7.5 containing 10 mM MgCl2, 10 mM MnCl2, 1 mM EGTA, 0.02% Brij35, 0.02 mg/mL BSA, 0.1 mM Na3VO4, 2 mM DTT, 0.02% Brij35, 10 μM ATP, and 20 μM peptide substrate […]. […] Reagents were combined and incubation at 30° C. for 30 min, the reaction was initiated by adding [γ-^33P]-ATP (10 ρCi/mL [γ-^33P]-ATP) and incubated for 2 h at 30° C. The reaction was then terminated by the addition of one-third volume of stop reagent (0.25 mM EDTA and 33 mM ATP in dH20). A […] aliquot was removed, spotted onto a P-81 filternat ion exchange paper and washed sequentially with 10% (w/v) chloroacetic acid and dH20 to remove ATP. The bound ^33P-peptide substrate was quantified by scintillation counting and the disintegrations per minute (dpm) obtained, being directly proportional to the amount of ^33P-peptide produced by PIM3, were used to determine the IC50 for each compound. […]
as §2

PIM1 [2] = target: T1, PIM1; test: LANCE Ultra kinase assay, PIM1; format: biochemical
Excerpt: as §3
The assay was performed in 384-well plates in two steps: PIM kinases were mixed with the ULight-substrate (CREBtide) in buffer and incubated for 10 min. Subsequently, ATP and molecules of the present disclosure were added in a kinase buffer at the appropriate concentration and the reactions were incubated for 1 hour, at room temperature in the dark. • After 1 h EDTA was added to stop the kinase reaction, Eu-W1024-labeled anti-phosphoserine-CREB (Ser133) Antibody (anti-phosphoCREBtide specific antibody) was added to the reaction in LANCE Detection buffer. The mixture was allowed to incubate for 30 min to allow binding of the antibody to the phosphorylated site before the plate was read using a Tecan microplate reader
Kinase Assay Buffer—50 mM HEPES pH7.0.1 mM EGTA, 10 mM MgCl2, 0.01% BRU-35.
The inhibitory activity of each compound against PIM kinases was measured with the LANCE® Ultra Kinase Assays by ChemDiv, Inc. (San Diego, Calif.).

Huh7 = test: CellTiter-Glo cancer cell growth inhibition, Huh7; format: cell-based; settings: Homo sapiens, Huh-7, 72 h
Excerpt: The CellTiter-Glo® Luminescent Cell Viability Assay is a sensitive homogeneous method to determine the number of viable cells in culture, Detection is based on using the luciferase reaction to measure the amount of ATP from viable cells. The amount of ATP in cells correlates with cell viability. Within minutes after a loss of membrane integrity, cells lose the ability to synthesize ATP, and endogenous ATPases destroy any remaining ATP; thus the levels of ATP fall precipitously. The CellTiter-Glo® Reagent does three things upon addition to cells. It lyses cell membranes to release ATP; it inhibits endogenous ATPases, and it provides luciferin, luciferase and other reagents necessary to measure ATP using a bioluminescent reaction. The unique properties of a proprietary stable luciferase.
All assays were performed by Reaction Biology Corporation (Malvern, Pa.) or ChemDiv, Inc. (San Diego, Calif.). All cell lines were purchased from American Type Culture Collection (ATCC, Manassas, Va.), except Huh 7 (RIKEN, Toyo, Japan) and HepaRG (Life Technologies, Carlsbad, Calif.).
Stock solutions ([…]) were diluted with cell culture media to produce 500× serial dilutions and […] of final compound dilutions were added to cells in assay plates to screen a series of 10 doses starting at […]. Final DMSO concentration was 0.2%. Assay plates are centrifuged at 100 rpm, 1 minute and kept at 37° C., 5% CO2, humidified atmosphere. […] Luminescence intensity was measured for each well using the Tecan M 1000 microplate reader after 5 min of incubation with CellTiter-Glo Reagent. The number of viable cells in culture was determined based on quantitation of the ATP present in each culture well. […] The EC50 curves were plotted and […] values were calculated using the GraphPad Prism 4 program based on a sigmoidal dose-response equation.

T1 sequence (P11309 whole entry): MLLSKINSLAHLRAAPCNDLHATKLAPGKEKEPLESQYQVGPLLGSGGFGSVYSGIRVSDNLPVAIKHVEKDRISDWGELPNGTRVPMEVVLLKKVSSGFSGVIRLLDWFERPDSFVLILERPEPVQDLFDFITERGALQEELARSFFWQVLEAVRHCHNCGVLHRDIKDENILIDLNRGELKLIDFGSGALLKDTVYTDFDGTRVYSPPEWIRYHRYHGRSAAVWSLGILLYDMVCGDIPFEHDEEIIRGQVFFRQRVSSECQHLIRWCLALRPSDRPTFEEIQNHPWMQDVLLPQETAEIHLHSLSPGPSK
T2 sequence (Q9P1W9 whole entry): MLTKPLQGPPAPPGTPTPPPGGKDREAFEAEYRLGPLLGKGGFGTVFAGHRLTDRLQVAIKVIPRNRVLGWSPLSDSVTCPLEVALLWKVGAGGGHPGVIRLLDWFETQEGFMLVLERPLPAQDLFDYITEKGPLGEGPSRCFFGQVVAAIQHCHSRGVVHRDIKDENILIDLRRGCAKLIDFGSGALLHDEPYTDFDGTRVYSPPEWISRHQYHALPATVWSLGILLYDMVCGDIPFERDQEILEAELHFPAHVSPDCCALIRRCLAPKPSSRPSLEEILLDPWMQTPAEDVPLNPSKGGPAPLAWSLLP

Row | IC50 (PIM1 [1]) [nM] | IC50 (PIM2) | Selectivity among PIM1-3 (IC50 plots, FIGS. 1A-1C) (PIM3) | IC50 (PIM3) [nM] | IC50 (PIM1 [2]; ATP 1 mM) [nM] | EC50 (Huh7) [nM] | IC50 (PIM1 [2]; ATP 0.1 mM) [nM] | SMILES
1 | 1.8 | 7 nM and 7.4 nM | PIM3 selectivity | 0.25 | 1.7 | 41 |  | O=C1NC(=O)c2c1c1c3cc(F)c(O)cc3[nH]c1c1c2c2ccccc2n1CCN1CCOCC1 [Compound 18, 3-fluoro-2-hydroxy-12-(2-morpholin-4-ylethyl)-12,13-dihydro-5H-indolo[2,3-a]pyrrolo[3,4-c]carbazole-5,7(6H)-dione]
2 | 0.98 | 6.7 nM |  | 0.2 | 0.82 | 80 | 0.23 | O=C1NC(=O)c2c1c1c3ccccc3[nH]c1c1c2c2cc(F)c(O)cc2n1CCN1CCOCC1 [Compound 19, 3-fluoro-2-hydroxy-13-(2-morpholin-4-ylethyl)-12,13-dihydro-5H-indolo[2,3-a]pyrrolo[3,4-c]carbazole-5,7(6H)-dione]
